From patent US4322426A, “17-Substituted-6-desoxy-7,8-dihydro-6α-methylnoroxymorphone narcotic antagonists” (priority 1980, dated 1982)

What was measured:
[1] = test system: Straub tail induced by morphine; experiment: Anti-Straub Tail test, antagonism of morphine-induced Straub tail; assay type: in vivo, Female CF1 S mice; details: relative to naloxone
Method: Narcotic analgesics produce in mice an erection and arching of the tail (90° or more) which is referable to spinal cord stimulation. This Straub tail reaction is not produced by other analgesics, including the narcotic antagonists.
H. B. Dayton and P. S. Wolf, The Pharmacologist, 10, 189 (1968)]. This property is the basis of a mouse test for narcotic antagonists.
Female CF1 S mice (fasted 17-21 hrs.), 5 per dose, were injected orally or subcutaneously (loose skin inside hind limb) with test drug at 0.67, 2, 6, 18, 54 and 162 mg/kg or other appropriate doses in 0.20 ml 1% Methocel® per mouse. Ten minutes later, 40 mg/kg (base weight) of morphine sulfate in 0.20 ml 1% Methocel® per mouse was given subcutaneously (nape of neck). The mice were observed continuously for the next 20 minutes after the first mouse of a group of 30 had received morphine. Prevention of a 90° Straub tail during this observation period was taken as indication of narcotic antagonist ability.

[2] = test system: pain induced by phenylquinone; experiment: Phenylquinone writhing test (PQW), analgesic activity; assay type: in vivo, female white mice; details: oral
Method: A standard procedure for detecting and comparing the analgesic activity of a series of compounds for which there is good correlation with human efficacy is the standard phenylquinone writhing test (PQW) modified from Siegmund, et al., Proc. Soc. Exp. Biol. Med., 95, 729 (1957). A test compound suspended in 1% methocellulose was given orally to fasted (17-21 hours) female white mice, 5-20 animals per double blind test. Aqueous (0.1% phenyl-p-benzoquinone) phenylquinone was injected intraperitoneally at 24 minutes later using 0.20 ml per mouse. […] The effective analgesic dose for 50% of the mice (ED50) was calculated by the moving average method of Thompson, W. R., Bact. Rev., 11, 115-145 (1947).

[3] = test system: Straub tail induced by morphine; details: literature, Blumberg et al. 1968; cited from earlier work

SMILES	analgesic activity (in words) [2]	prevention of morphine-induced Straub tail (in words) [3]	further results
C[C@H]1CC[C@@]2(O)[C@H]3Cc4ccc(O)c5c4[C@@]2(CCN3CC2CC2)[C@H]1O5 [Compound 1]	–	–	narcotic antagonism (in words) [1]: almost the antagonistic activity of naloxone
COc1ccc2c3c1O[C@H]1[C@@H](C)CC[C@@]4(O)[C@@H](C2)N(CC2CCCO2)CC[C@]314 (some centres unmarked) [Compound 6]	weakly analgetic	–	–
C[C@H]1CC[C@@]2(O)[C@H]3Cc4ccc(O)c5c4[C@@]2(CCN3CC2CCCO2)[C@H]1O5 (some centres unmarked) [Compound 7]	weakly analgetic	–	–
C=CCN1CC[C@]23c4c5ccc(O)c4O[C@H]2C(=O)CC[C@@]3(O)[C@H]1C5 [Naloxone]	–	prevent the induction of Straub tail in mice	–
C=CCN1CC[C@]23c4c5ccc(O)c4O[C@H]2[C@@H](O)C=C[C@H]3[C@H]1C5 [nalorphine]	–	prevent the induction of Straub tail in mice	–
